Consider 1 compound from patent publication US6613766B1, “Pentaaza-cyclopental[a]naphthalene derivatives as ligands for GABAa α5 receptors” (Merck Sharp & Dohme Ltd., priority 1998, dated 2003).

As usually defined, the melting point is the temperature of the solid-liquid transition. `Cc1cc(-c2nnc3c4cccnc4c(OCc4ncnn4C)nn23)no1` [Example 4, 3-(5-Methylisoxazol-3-yl)-5-(2-methyl-1,2,4-triazol-3-ylmethyloxy)-1,2,3a,4,6-pentaaza-cyclopenta[a]naphthalene] showed a melting point of 255 to 257 °C.
